Laboratory results taken from the NIST ThermoML archive (doi:10.1021/je060271a).
Several values for one entry are separate records, joined by “and”; a condition that tells them apart may be missing. Identical values can stand only once.

Conditions: Liquid, Vibrating tube method

CCCCCC(=O)OCC(COC(=O)CCCCC)(COC(=O)CCCCC)COC(=O)CCCCC [pentaerythritol tetrahexanoate]
Conditions | mass density
303.16 K, 25121 kPa | 1003.6 kg/m3
303.16 K, 25156 kPa | 1003.5 kg/m3
303.16 K, 25186 kPa | 1003.6 kg/m3
303.16 K, 25221 kPa | 1003.6 kg/m3
303.16 K, 25252 kPa | 1003.7 kg/m3
303.16 K, 25282 kPa | 1003.6 kg/m3
303.16 K, 25674 kPa | 1003.8 kg/m3
303.16 K, 25700 kPa | 1003.9 kg/m3
303.16 K, 25725 kPa | 1003.8 kg/m3
303.16 K, 25756 kPa | 1003.9 kg/m3
303.16 K, 25781 kPa | 1004 kg/m3
303.16 K, 25807 kPa | 1003.9 kg/m3
303.16 K, 25838 kPa | 1004 kg/m3
303.16 K, 25863 kPa | 1004 kg/m3
303.16 K, 25889 kPa | 1004 kg/m3
303.16 K, 28629 kPa | 1005.5 kg/m3
303.16 K, 28934 kPa | 1005.7 kg/m3
303.16 K, 28965 kPa | 1005.6 kg/m3
303.16 K, 28991 kPa | 1005.6 kg/m3
303.16 K, 29017 kPa | 1005.6 kg/m3
303.16 K, 29049 kPa | 1005.7 kg/m3
303.16 K, 29076 kPa | 1005.7 kg/m3
303.16 K, 29102 kPa | 1005.7 kg/m3
303.16 K, 29134 kPa | 1005.8 kg/m3
303.16 K, 29162 kPa | 1005.6 kg/m3
303.16 K, 29189 kPa | 1005.7 kg/m3
303.16 K, 29220 kPa | 1005.8 kg/m3
303.16 K, 29244 kPa | 1005.8 kg/m3
303.16 K, 29266 kPa | 1005.9 kg/m3
303.16 K, 29288 kPa | 1005.9 kg/m3
303.16 K, 29315 kPa | 1005.9 kg/m3
303.16 K, 29338 kPa | 1005.9 kg/m3
303.16 K, 29360 kPa | 1005.9 kg/m3
303.16 K, 29388 kPa | 1005.8 kg/m3
303.16 K, 29410 kPa | 1006 kg/m3
303.16 K, 29438 kPa | 1005.9 kg/m3
303.16 K, 30312 kPa | 1006.3 kg/m3
303.16 K, 30341 kPa | 1006.5 kg/m3
303.16 K, 30365 kPa | 1006.5 kg/m3
303.16 K, 30389 kPa | 1006.5 kg/m3
303.16 K, 30419 kPa | 1006.6 kg/m3
303.16 K, 30445 kPa | 1006.4 kg/m3
303.16 K, 30470 kPa | 1006.4 kg/m3
303.16 K, 30494 kPa | 1006.6 kg/m3
303.16 K, 30523 kPa | 1006.6 kg/m3
303.16 K, 30548 kPa | 1006.6 kg/m3
303.16 K, 30572 kPa | 1006.6 kg/m3
303.16 K, 30602 kPa | 1006.5 kg/m3
303.16 K, 30627 kPa | 1006.6 kg/m3
303.16 K, 30652 kPa | 1006.6 kg/m3
303.16 K, 30681 kPa | 1006.5 kg/m3
303.16 K, 30706 kPa | 1006.7 kg/m3
303.16 K, 30731 kPa | 1006.5 kg/m3
303.16 K, 30761 kPa | 1006.7 kg/m3
303.16 K, 30788 kPa | 1006.6 kg/m3
303.16 K, 30813 kPa | 1006.6 kg/m3
303.16 K, 30838 kPa | 1006.7 kg/m3
303.16 K, 30868 kPa | 1006.7 kg/m3
303.16 K, 30893 kPa | 1006.6 kg/m3
303.16 K, 30923 kPa | 1006.7 kg/m3
303.16 K, 30949 kPa | 1006.7 kg/m3
303.16 K, 30974 kPa | 1006.7 kg/m3
303.16 K, 31005 kPa | 1006.9 kg/m3
303.16 K, 31031 kPa | 1006.7 kg/m3
303.16 K, 31057 kPa | 1006.7 kg/m3
303.16 K, 31087 kPa | 1006.8 kg/m3
303.16 K, 31114 kPa | 1006.8 kg/m3
303.16 K, 31140 kPa | 1006.9 kg/m3
303.16 K, 32264 kPa | 1007.5 kg/m3
303.16 K, 32284 kPa | 1007.6 kg/m3
303.16 K, 32306 kPa | 1007.5 kg/m3
303.16 K, 32325 kPa | 1007.5 kg/m3
303.16 K, 32343 kPa | 1007.5 kg/m3
303.16 K, 32366 kPa | 1007.5 kg/m3
303.16 K, 32385 kPa | 1007.4 kg/m3
303.16 K, 32914 kPa | 1007.8 kg/m3
303.16 K, 32937 kPa | 1007.9 kg/m3
303.16 K, 32956 kPa | 1007.7 kg/m3
303.16 K, 32976 kPa | 1007.7 kg/m3
303.16 K, 33185 kPa | 1007.9 kg/m3
303.16 K, 33209 kPa | 1008 kg/m3
303.16 K, 33228 kPa | 1008 kg/m3
303.16 K, 33252 kPa | 1007.9 kg/m3
303.16 K, 33272 kPa | 1008.1 kg/m3
303.16 K, 33292 kPa | 1008 kg/m3
303.16 K, 33317 kPa | 1007.9 kg/m3
303.16 K, 33337 kPa | 1008.1 kg/m3
303.16 K, 33357 kPa | 1008.1 kg/m3
303.16 K, 33377 kPa | 1008.1 kg/m3
303.16 K, 33402 kPa | 1008.1 kg/m3
303.16 K, 33423 kPa | 1008 kg/m3
303.16 K, 33443 kPa | 1008.1 kg/m3
303.16 K, 33467 kPa | 1008.1 kg/m3
303.16 K, 33487 kPa | 1008.1 kg/m3
303.16 K, 33512 kPa | 1008.1 kg/m3
303.16 K, 33533 kPa | 1008.1 kg/m3
303.16 K, 33553 kPa | 1008.1 kg/m3
303.16 K, 33574 kPa | 1008.3 kg/m3
303.16 K, 33599 kPa | 1008.2 kg/m3
303.16 K, 33621 kPa | 1008.2 kg/m3
303.16 K, 33642 kPa | 1008.3 kg/m3
303.16 K, 33668 kPa | 1008.3 kg/m3
303.16 K, 33689 kPa | 1008.3 kg/m3
303.16 K, 33711 kPa | 1008.2 kg/m3
303.16 K, 33733 kPa | 1008.1 kg/m3
303.16 K, 33759 kPa | 1008.2 kg/m3
303.16 K, 33782 kPa | 1008.3 kg/m3
303.16 K, 33805 kPa | 1008.2 kg/m3
303.16 K, 33833 kPa | 1008.2 kg/m3
303.16 K, 33857 kPa | 1008.4 kg/m3
303.16 K, 33886 kPa | 1008.2 kg/m3
303.17 K, 238.4 kPa | 988.6 kg/m3
303.17 K, 238.6 kPa | 988.5 kg/m3
303.17 K, 239.1 kPa | 988.5 kg/m3
303.17 K, 272.8 kPa | 988.5 kg/m3
303.17 K, 273 kPa | 988.7 kg/m3
303.17 K, 273.3 kPa | 988.6 kg/m3
303.17 K, 273.5 kPa | 988.6 kg/m3
303.17 K, 273.6 kPa | 988.6 kg/m3
303.17 K, 355.5 kPa | 988.6 kg/m3
303.17 K, 355.8 kPa | 988.5 kg/m3
303.17 K, 356.5 kPa | 988.6 kg/m3
303.17 K, 356.8 kPa | 988.5 kg/m3
303.17 K, 357.2 kPa | 988.6 kg/m3
303.17 K, 357.5 kPa | 988.6 kg/m3
303.17 K, 361 kPa | 988.7 kg/m3
303.17 K, 361.7 kPa | 988.5 kg/m3
303.17 K, 362 kPa | 988.6 kg/m3
303.17 K, 362.4 kPa | 988.5 kg/m3
303.17 K, 362.7 kPa | 988.6 kg/m3
303.17 K, 363.1 kPa | 988.6 kg/m3
303.17 K, 363.8 kPa | 988.7 kg/m3
303.17 K, 364 kPa | 988.7 kg/m3
303.17 K, 375.4 kPa | 988.5 kg/m3
303.17 K, 376.3 kPa | 988.6 kg/m3
303.17 K, 376.5 kPa | 988.7 kg/m3 and 988.6 kg/m3
303.17 K, 377.2 kPa | 988.6 kg/m3
303.17 K, 378.5 kPa | 988.6 kg/m3
303.17 K, 1469.1 kPa | 989.4 kg/m3
303.17 K, 1484.4 kPa | 989.2 kg/m3
303.17 K, 1497.4 kPa | 989.2 kg/m3
303.17 K, 1510.5 kPa | 989.4 kg/m3
303.17 K, 1526.6 kPa | 989.4 kg/m3
303.17 K, 1540 kPa | 989.3 kg/m3
303.17 K, 1553.5 kPa | 989.4 kg/m3
